In patent US20050282841A1 (priority 2004, published 2005):

How the values were obtained:
Format in all cases: in vivo
Conditions in all cases: on tomatoes, wheat and vine crops
[1] = test system: Late blight (Phytophthora infestans)
[2] = test system: Powdery mildew (Erisyphe araminis); assay: fungicidal effectiveness against Powdery mildew
[3] = test system: Brown rust (Puccinia recondita); assay: fungicidal effectiveness against Brown rust
[4] = test system: Septoria leaf spot (Septoria tritici); assay: fungicidal effectiveness against Septoria leaf spot

CO/N=C(/C(=O)OC(Cn1cncn1)(c1ccc(Cl)cc1)C(C)C1CC1)c1ccccc1COc1ccccc1C (racemic) [Example 2, (2RS,3RS;2RS,3SR)-2-(4-chlorophenyl)-3-cyclopropyl-1-(1H-1,2,4-triazol-1-yl)butan-2-yl (E)-methoxyimino[α-(o-tolyloxy)-o-tolyl]acetate]
effective: effectiveness against fungal pathogen Late blight (Phytophthora infestans) [1] | effectiveness against fungal pathogen Powdery mildew (Erisyphe araminis) [2] | effectiveness against fungal pathogen Brown rust (Puccinia recondita) [3] | effectiveness against fungal pathogen Septoria leaf spot (Septoria tritici) [4]

CO/C=C(/C(=O)OC(c1ccccc1)(c1cncnc1)c1ccc(Cl)cc1Cl)c1ccccc1Oc1cc(Oc2ccccc2C#N)ncn1 (racemic) [Example 1, (RS)-2,4-dichloro-α-(pyrimidin-5-yl)benzhydryl (E)-2-{2-[6-(2-cyanophenoxy)pyrimidin-4-yloxy]phenyl}-3-methoxyacrylate]
effective: effectiveness against fungal pathogen Late blight (Phytophthora infestans) [1] | effectiveness against fungal pathogen Powdery mildew (Erisyphe araminis) [2] | effectiveness against fungal pathogen Brown rust (Puccinia recondita) [3] | effectiveness against fungal pathogen Septoria leaf spot (Septoria tritici) [4]

CO/N=C(/C(=O)OC(CCc1ccc(Cl)cc1)(Cn1cncn1)C(C)(C)C)c1ccccc1CO/N=C(\C)c1cccc(C(F)(F)F)c1 (racemic) [Example 3, (RS)-1-p-chlorophenyl-4,4-dimethyl-3-(1H-1,2,4-triazol-1-ylmethyl)pentan-3-yl (E)-methoxyimino-{(E)-α-[1-(α,α,α-trifluoro-m-tolyl)ethylideneaminooxy]-o-tolyl}acetate]
effective: effectiveness against fungal pathogen Late blight (Phytophthora infestans) [1] | effectiveness against fungal pathogen Powdery mildew (Erisyphe araminis) [2] | effectiveness against fungal pathogen Brown rust (Puccinia recondita) [3] | effectiveness against fungal pathogen Septoria leaf spot (Septoria tritici) [4]
